Residues, ends and D or L forms follow the SMILES beside them. *: point of attachment. Cbz = O=C(OCc1ccccc1)*

As to `CCOC(=O)C(=O)Nc1c([N+](=O)[O-])sc2ccc(Br)cc12`, the melting point lay in the range of 157 to 160 °C.

The compound `CCCCCCCCCCCCCCCCCCOc1cc(OCCCCCCc2cccc(O)c2O)cc(C(=O)OC)c1` displayed a melting point of 82 to 84 °C. `CC(=O)NC1CCN(c2cccc(Cl)n2)CC1` displayed a melting point of 153 to 155 °C. Regarding `CC1(C)CC(=O)C(C)(C)c2cc(C=O)ccc21`, the melting point is 82 to 84 °C. As for `O=C(NC1c2cc(NC(=O)N3CCCC3)ccc2CCC1O)c1ccc(Cl)c(Cl)c1` (stereo not given), the melting point was 206 to 208 °C. `CCCOc1c(OC)cc(NC(C)CCCN2C(=O)c3ccccc3C2=O)c2ncccc12` (stereo not given) had a melting point of 140 to 143 °C. In the case of `CC(C)C1(C)N=C(c2ccccc2C(=O)O)NC1=S` (stereo not given), the melting point fell in the range of 192 to 198 °C.

Compound `COCCNC(=O)COC1c2ccccc2C(=O)N1c1ccc2ccc(OC)nc2n1` (stereo not given) gave a melting point of 172 °C. As for `COc1ncccc1-c1nc(C(N)=O)c2[nH]c(=O)n(-c3ccccc3)c2n1`, the figure is 279 to 281 °C. As for `CSc1ccc(C=C2C=CC=C2)cc1`, the figure is 105 to 106 °C; as for `CCC(C)Nc1cc(N2CCc3cc(OC)cc(Cl)c32)nc(C)n1` (stereo not given), 102 to 105 °C. As for `OCC12CC3CC(CC(C3)C1Br)C2` (stereo not given), the figure is 138 °C; as for `CN(C)CCCN1N=C2C(=Cc3ccccc3)CS(=O)(=O)CC2C1c1ccccc1` (stereo not given), 127 to 129 °C; as for `CC(=O)Oc1ccc(C[C@H]2CCc3ccccc3O2)cc1`, 64 to 65 °C. In the case of `Nc1ncnc2c1c(-c1ccccc1Cl)cn2-c1ccccc1`, the melting point lay in the range of 175 to 176 °C. Under `Cc1ccc2cccc(OCc3c(C)ccc(NC(=O)CN4C(=O)c5ccccc5C4=O)c3C)c2n1` stands 266 to 268 °C; under `CCOC(=O)c1cc2n(c1)CN(CCC#N)c1c(OC)cccc1-2`, 146 to 147 °C; under `CCOC(=O)c1cc(SC)c(I)cc1N`, 59 to 60 °C. Under `CC(=O)Nc1cccc(Br)n1` stands 157 °C; under `Nc1cc(Cl)cc(N)c1[N+](=O)[O-]`, 202 °C; under `Cc1c(CO)c(Cl)nc2ccccc12`, over 260 °C. `Cc1noc(NC(=O)N2CCN(c3nc(-c4cccc(Cl)c4Cl)cs3)CC2)c1C` yielded a melting point of 175 to 176 °C. Under `O=C1NC(=O)C(Cc2ccc(OCCc3nc(-c4ccccc4)oc3CO)cc2)S1` (stereo not given) stands 98 to 99 °C; under `CN1CCN(C(=O)OC(C)(C)C)CC1C(N)=O` (stereo not given), 137 to 138 °C; under `COc1cc2c(cc1Br)-c1c(Br)c3c(n1CC2)C(=O)N(C(C)(C)C)CCC3`, 218 to 220 °C. In the case of `CCOC(NC(=O)c1cccc(Cl)c1)C(N)=S` (stereo not given), the melting point was in the range of 136 to 137 °C. Compound `COc1cnn([C@@H]2C[C@H](O)[C@@H](O)[C@H]2O)c(=O)c1Cl` (racemic) gave a melting point of 166 to 168 °C.

Compound `CCc1cccc2nc3c(=O)[nH][nH]c(=O)c3c(O)c12` registered a melting point of over 400 °C. Regarding `N=C(N)NCCCC(NC(=O)C1CCCN1C(=O)OCc1ccccc1)C(=O)O` (stereo not drawn) (Cbz-Pro-Arg-OH; configuration not given here), the melting point was 137 to 140 °C. Under `CCC(=O)C(=CS(=O)(=O)c1ccc(OS(=O)(=O)c2ccc(C)cc2)cc1)N(C)C` stands 148 to 150 °C. As for `CC(C)n1nc(-c2c(-c3ccccc3)nn3ccc(C(=O)NCc4cccnc4)cc23)ccc1=O`, the figure is 192 to 193 °C.

In turn, `CSC1=Nc2cccnc2Nc2cscc21` gave a melting point of 138 to 140 °C. `O=CCCNC(=O)c1ccc[nH]1` gave a melting point of 88 to 90 °C. As to `CCNc1nc(C)c(C(=O)c2ccc(N)c(N)c2)s1`, the melting point lay within 185 to 225 °C. As for `CCCCCCN(CCCCCC)C(=O)COc1cc(C(=O)O)c([N+](=O)[O-])c(C(=O)O)c1`, the figure is 180 to 184 °C; as for `CC(C)n1c(=O)n(C)c(=O)c2cc(Cc3ccccc3)sc21`, 91 to 93 °C; as for `CC(C)CCOc1c(-c2ccc(S(N)(=O)=O)cc2)cnn(CC(F)(F)F)c1=O`, 123 to 124 °C.

`NC1(c2ccccc2Cl)C(=O)Nc2ccc(Cl)cc21` (stereo not given) yielded a melting point of 174 to 176 °C.

In turn, `CCOC(=O)c1cn(CC)c2cc3c(cc2c1=O)OCO3` had a melting point of 177 to 178 °C. Compound `Cc1ccc(C(=O)c2ccc(Cc3ccc(N)cn3)n2C)cc1` displayed a melting point of 104 to 107 °C. Under `O=c1cc(N2CCCCC2)sn1CCc1ccccc1` stands 106 to 108 °C; under `CCOC(=O)NCC(=O)c1ccc(OCC(=O)NCCN2CCOCC2)cc1`, 133 to 135 °C. As for `Cc1oc(-c2ccco2)nc1COc1ccc(Cc2nc(CCC(=O)O)c(-c3ccccc3)o2)cc1`, the figure is 154 to 155 °C; as for `CCn1ncc2c3ncn(CCC(C)C)c(=O)c3cnc21`, 165 to 167 °C; as for `Oc1ccc2c(c1)CCC2n1cc[nH]c1=S` (stereo not given), 208 to 209 °C. As for `COc1ccc(CCCC(CC(=O)O)CC(=O)O)cc1`, the figure is 71 to 73 °C.

Compound `CN1C(=S)N(c2ccc(C#N)c(C(F)(F)F)c2)C(=N)C12CCCC2` showed a melting point of 165 to 166 °C.

For the compound `CCNC(=S)NS(=O)(=O)c1cc(CCNC(=O)C=Cc2ccc(OC)cc2OC)ccc1OCCOC`, the melting point lay within 146 to 148 °C. Under `COc1ccc(C2CCN(c3c(C)c(C)c4c(c3C)C(O)(c3ccc(C)cc3)C(C)(C)O4)CC2)cc1OC` (stereo not given) stands 133 to 135 °C; under `COC(=O)C1OC(Oc2nc[nH]c2C(N)=O)C(OC(C)=O)C(OC(C)=O)C1OC(C)=O` (stereo not given), 211 to 212 °C; under `O=C(O)c1cc(=O)c(Sc2ccccc2)co1`, 178 to 181 °C. `NCC(=O)c1ncn(Cc2ccccc2)c1N` showed a melting point of 156 to 162 °C.

In the case of `Cc1ccc(S(=O)(=O)N[C@@H]2CCCC[C@H]2OCC(=O)O)cc1` (relative stereo), the melting point was in the range of 56 to 58 °C. Under `Cc1ccccc1-c1nsc(SN)n1` stands 110 to 112 °C; under `COc1ccc(-n2cnc(-c3cccc(C(=O)O)c3)n2)cc1`, 230 to 232 °C. Take `c1coc(-c2cnc3[nH]c4ccccc4c3c2)c1`: the melting point is over 220 °C. As to `[O-][N+]1=C(c2ccccc2)c2cc(Cl)ccc2CCC1`, the melting point was 120 to 125 °C. The compound `COCCN(CCOC)c1nc2cc(-c3ccc(OC)cc3)nnc2c2ccccc12` returned a melting point of 127 to 128 °C. As to `COc1cc([N+](=O)[O-])ccc1S(=O)(=O)N1C(=O)C(NC(C)=O)(c2ccccc2Cl)c2cc(Cl)ccc21` (stereo not given), the melting point was 205 to 210 °C. `CCN1C(C)=CC(=O)CS1(=O)=O` came in with a melting point of 90 to 92 °C. As for `CCc1cc(C)cc(CC)c1C(C(N)=O)C(N)=O`, the figure is 184 to 186 °C.

Compound `O=CC=CC(=C(c1ccc(F)cc1)c1ccc(F)cc1)c1nnn(C(c2ccccc2)(c2ccccc2)c2ccccc2)n1` had a melting point of 122 to 124 °C. Compound `CN(C)C=C(C#N)C(=O)Nc1ccccc1Cl` showed a melting point of 122 to 123 °C. Under `N#Cc1c(N2CCCCC2)cc(-c2ccc3ccccc3c2)c2c1Cc1ccccc1-2` stands 142 to 144 °C; under `CC(C)(OCc1nn(Cc2ccccc2)c2ccc(Cl)cc12)C(=O)O`, 145 to 147 °C.

These data come from a melting point compilation (Tetko et al.; mined from patent text by program, amines drawn as free bases though some values may be those of a salt).
